Assays:
HCV replicon genotype 1a = assay: microbe, parasite or virus in culture; assay type: cell-based, hepatitis C virus (HCV); conditions: Hepatitis C virus, 96 h, read-out: 1a IC50 (nM)
HCV replicon genotype 1b = assay: microbe, parasite or virus in culture; assay type: cell-based, hepatitis C virus (HCV); conditions: Hepatitis C virus, 96 h, read-out: 1b IC50 (nM)

Row | Compound | IC50 (HCV replicon genotype 1a) [nM] | IC50 (HCV replicon genotype 1b) [nM]
1 | CNC(=O)c1c(-c2ccc(F)cc2)oc2cc(N(C)S(C)(=O)=O)c(-c3cc(OC)c4nc(C)n(Cc5ccc(F)cc5)c(=O)c4c3)cc12 [Compound 69, 5-(3-(4-fluorobenzyl)-8-methoxy-2-methyl-4-oxo-3,4-dihydroquinazolin-6-yl)-2-(4-fluorophenyl)-N-methyl-6-(N-methylmethylsulfonamido)benzofuran-3-carboxamide] | 6.64 | 10.1
2 | CNC(=O)c1c(-c2ccc(F)cc2)oc2cc(N(C)S(C)(=O)=O)c(-c3cc4c(=O)n(Cc5ccc(F)cc5)nnc4cc3F)cc12 [Compound 70, 5-(7-fluoro-3-(4-fluorobenzyl)-4-oxo-3,4-dihydrobenzo[d][1,2,3]triazin-6-yl)-2-(4-fluorophenyl)-N-methyl-6-(N-methylmethylsulfonamido)benzofuran-3-carboxamide] | 11.3 | 2.61
3 | CNC(=O)c1c(-c2ccc(F)cc2)oc2cc(N(C)S(C)(=O)=O)c(-c3cc(OC)c4nnn(Cc5ccc(F)cc5)c(=O)c4c3)cc12 [Compound 71, 5-[3-(4-fluorobenzyl)-8-methoxy-4-oxo-3,4-dihydro-1,2,3-benzotriazin-6-yl]-2-(4-fluorophenyl)-N-methyl-6-[methyl(methylsulfonyl)amino]-1-benzofuran-3-carboxamide] | 3.49 | 0.782
4 | CNC(=O)c1c(-c2ccc(F)cc2)oc2cc(N(C)S(C)(=O)=O)c(-c3cc4c(=O)n(Cc5ccc(F)cc5)nnc4cc3C)cc12 [Compound 72, 5-[3-(4-fluorobenzyl)-7-methyl-4-oxo-3,4-dihydro-1,2,3-benzotriazin-6-yl]-2-(4-fluorophenyl)-N-methyl-6-[methyl(methylsulfonyl)amino]-1-benzofuran-3-carboxamide] | 8.62 | 6.47
5 | CNC(=O)c1c(-c2ccc(F)cc2)oc2cc(N(C)S(C)(=O)=O)c(-c3cc4c(=O)n(Cc5ccc(F)cc5)nnc4cc3Cl)cc12 [Compound 73, 5-[7-chloro-3-(4-fluorobenzyl)-4-oxo-3,4-dihydro-1,2,3-benzotriazin-6-yl]-2-(4-fluorophenyl)-N-methyl-6-[methyl(methylsulfonyl)amino]-1-benzofuran-3-carboxamide] | 11.6 | 7.65
6 | CNC(=O)c1c(-c2ccc(F)cc2)oc2cc(N(C)S(C)(=O)=O)c(-c3cc(C)c4nnn(Cc5ccc(F)cc5)c(=O)c4c3)cc12 [Compound 74, 5-[3-(4-fluorobenzyl)-8-methyl-4-oxo-3,4-dihydro-1,2,3-benzotriazin-6-yl]-2-(4-fluorophenyl)-N-methyl-6-[methyl(methylsulfonyl)amino]-1-benzofuran-3-carboxamide] | 11.9 | 7.08
